From PMC5318439, “The Novel Toll-Like Receptor 2 Agonist SUP3 Enhances Antigen Presentation and T Cell Activation by Dendritic Cells” (Frontiers in Immunology, 2017) come the findings set out here.

Each structure is given as a SMILES string. Where a SMILES comes first, the peptide text is derived from it. The star is where a group is joined. X1 = CCCCCCCCCCCCCCNC(=O)OC[C@H](C*)OC(=O)NCCCCCCCCCCCCCC; Palmitoyl = CCCCCCCCCCCCCCCC(=O)*

One series addresses TLR2 (Homo sapiens, UniProt O60603). Put plainly: Affinity of TLR2 agonist for TLR2. The series is classed as binding. Particulars: compared with Pam3; Figure S3A. An excerpt:
(§1) Pam3 is a lipopeptide and serves as a TLR2 agonist through binding to TLR2/TLR1 heterodimer. Although Pam3 is widely used as a TLR2 agonist, some intrinsic problems remain in detailed mechanism studies and drug development. The two ester groups of Pam3 can be easily hydrolyzed in plasma, and the hydroxyl group in serine could be readily oxidized in physiological conditions (Figure S1A in Supplementary Material). […] In addition, we displaced serine residue in Pam3 with glycine residue to eliminate this chiral center (Figures S1A,B in Supplementary Material). Since the third lysine residue in Pam3 is crucial for H bonding, we kept three lysine residues in the new molecule and removed the forth lysine residue to further reduce the molecular weight of the new TLR2 agonist, (2S,5S,8S,14R,18R)-2,5,8-tris(4-aminobutyl)-4,7,10,13,21-pentaoxo-14-palmitamido-18-((tetradecylcarbamoyl)oxy)-20-oxa-16-thia-3,6,9,12,22-pentaazahexatriacontan-1-oic acid. It is termed SUP3 (Figure 1A; Figures S1A,B in Supplementary Material). Chemical characterization of SUP3 by ^1H nuclear magnetic resonance and electrospray ionization mass spectrum analysis further confirm the structure (Figures S2A,B in Supplementary Material).

The nature of another series: Plasma stability. The series is classed as in vitro ADME. Particulars: compared with Pam3, Figure S3B.
Description: as §1

A further series has as its system OT-II CD4^+ T cells. Put plainly: OT-II CD4+ T cell activation in vivo. Particulars: OVA 100 µg per mouse s.c. with 2 nmol per mouse, 3 days; vs Pam3. The arrangement: species or system mice. Here is the method:
Carboxyfluorescein diacetate succinimidyl ester-stained OT-II CD4^+ T cells (2 × 10^6 cells per mouse) were transferred into mice 1 day prior immunization. Then the recipients were subcutaneously (s.c.) injected with OVA alone (100 µg per mouse), or OVA mixed with SUP3 (2 nmol per mouse) or Pam3 (2 nmol per mouse) at groin. Three days after immunization, OT-II CD4^+ T cells from inguinal lymph nodes were analyzed by flow cytometry.
Figure 5 SUP3 enhanced antigen presentation ability of CD11b^+ conventional dendritic cells (cDCs) and production of antibodies against thymus-dependent (TD) antigens. […] Three days after immunization, division of OT-II CD4^+ T cells from inguinal lymph nodes were analyzed by flow cytometry (B). Absolute numbers of proliferated OT-II CD4^+ T cells were calculated in (C). […] Cells were then thoroughly washed and cocultured with CFSE-stained OT-II CD4^+ T cells for 4 days and analyzed by flow cytometry. (D) The division of OT-II cells was measured by reduced level of CFSE-labeling. (E) Absolute numbers of proliferated T cells from (D) were calculated. (F) SUP3 (2 nmol per mouse), Pam3 (2 nmol per mouse), or PBS were i.v. injected into mice for 1 h, and splenic CD11b^+ cDCs were enriched and analyzed for CD86 expression by flow cytometry. […] The cytokines from supernatant were determined by ELISA (*p < 0.05, **p < 0.01). […]

Sequence of TLR2 (O60603 21-784, species assumed): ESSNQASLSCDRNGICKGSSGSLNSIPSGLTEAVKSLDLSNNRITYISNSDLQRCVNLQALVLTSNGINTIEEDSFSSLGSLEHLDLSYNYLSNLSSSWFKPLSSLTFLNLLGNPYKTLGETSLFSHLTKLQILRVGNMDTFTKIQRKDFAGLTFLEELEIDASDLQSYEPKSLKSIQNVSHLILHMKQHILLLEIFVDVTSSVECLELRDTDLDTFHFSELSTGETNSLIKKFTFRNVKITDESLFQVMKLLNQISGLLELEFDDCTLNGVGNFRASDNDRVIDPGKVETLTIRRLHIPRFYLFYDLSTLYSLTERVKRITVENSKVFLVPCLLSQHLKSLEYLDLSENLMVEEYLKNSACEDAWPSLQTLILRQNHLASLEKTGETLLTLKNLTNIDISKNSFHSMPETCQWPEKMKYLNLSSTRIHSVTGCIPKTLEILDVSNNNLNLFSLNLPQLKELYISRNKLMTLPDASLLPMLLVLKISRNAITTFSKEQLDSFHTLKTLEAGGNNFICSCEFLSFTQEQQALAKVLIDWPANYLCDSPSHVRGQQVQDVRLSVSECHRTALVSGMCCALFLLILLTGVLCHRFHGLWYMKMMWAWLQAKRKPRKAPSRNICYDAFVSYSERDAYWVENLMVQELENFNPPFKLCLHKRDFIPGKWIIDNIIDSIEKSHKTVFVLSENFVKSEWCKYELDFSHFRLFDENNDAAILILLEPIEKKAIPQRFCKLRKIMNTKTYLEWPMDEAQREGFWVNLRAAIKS

With `CCCCCCCCCCCCCCCC(=O)N[C@@H](CSC[C@@H](COC(=O)NCCCCCCCCCCCCCC)OC(=O)NCCCCCCCCCCCCCC)C(=O)NCC(=O)N[C@@H](CCCCN)C(=O)N[C@@H](CCCCN)C(=O)N[C@@H](CCCCN)C(=O)O` [SUP3, (2S,5S,8S,14R,18R)-2,5,8-tris(4-aminobutyl)-4,7,10,13,21-pentaoxo-14-palmitamido-18-((tetradecylcarbamoyl)oxy)-20-oxa-16-thia-3,6,9,12,22-pentaazahexatriacontan-1-oic acid] (Palmitoyl-C(X1)GKKK-OH), at TLR2, the affinity entry is on record as “comparable with Pam3”. In “Plasma stability”, the plasma stability result is listed as “much higher than Pam3”. In the series on OT-II CD4^+ T cells, the “proliferation of OT-II CD4+ T cells in draining lymph nodes” value was “more proliferation of OT-II CD4^+ T cells than that with Pam3”.
